Assay results: patent US20190010524A1, “BIOLOGICAL METHODS FOR PREPARING A FATTY DICARBOXYLIC ACID” (Verdezyne, Inc., priority 2012, published 2019)

Assays:
[1] = test system: Candida tropicalis strain (sAA496); assay: Fermentation of coconut oil to mixed diacids at different pH; assay type: cell-based; settings: coconut oil 80 g/L, 140 hours
Procedure: Autoclaved virgin coconut oil was added to the vessel to a final concentration of 80 g/L. A partially beta-oxidation blocked Candida tropicalis strain (sAA496) was inoculated to an initial OD600nm of 1.0 with a 5% inoculum and grown under the following conditions: 30° C. with shaking at about 1200 rpm, 1 vvm, initial pH 6.5 and initial volume of 1.0 L. The effect of pH on the distribution of fatty acid chain lengths was determined by manipulating the pH of the fermentation media. The pH of the fermentation was either 1) increased to pH 7.5 and controlled at that pH for the entire run, 2) allowed to drop-naturally due to the growth of the culture before controlling at pH 6.0 for the rest of the run; or 3) allowed to drop naturally due to the growth of the culture before controlling at pH 4.5 for the rest of the run. Samples were collected for GC analysis after 140 hours of fermentation time.

[2] = test system: strain sAA1082; assay: Production of DDDA from ethyl laurate or methyl laurate feedstock (Example 67); assay type: cell-based, Candida
Procedure: Methyl laurate feed rates varied as follows: 0.75 g/L-h for the first 24 h; 1.2 g/L-h from 24 h to termination. Ethyl laurate was fed at a rate of 0.75 gL-h for the first 24 h; 1.28 g/L-h from 24 h to termination. […] Also at induction a co-feed of dextrose was fed at a rate of either 1.25 g/L-h or 0.9 g/L-h. In TABLE 35, data from these two ethyl laurate fermentations were compared to similar data obtained from methyl laurate fermentations run under the same conditions.

[3] = test system: Candida strain ATTC 20962; assay: Shake flask bioconversion of feedstocks of varying chain length (Example 72); assay type: cell-based; settings: ethyl esters 1% v/v, alkanes 3% v/v
Procedure: (§1) The bioconversion tests in this Example were undertaken following a shake flask protocol. […] The YPD contained 10 g/L yeast extract, 20 g/L peptone, and 20 g/L dextrose. These cultures were then placed in a 30° C. shaking incubator at 250 rpm for 18 to 20 hours.
(§2) After this growth phase, these cultures were used to inoculate 350 ml of SP92-glycerol media dispensed into 10-250 ml wide mouth flasks in 35 ml aliquots for each strain. The SP92-glycerol media contained 6.7 g/L yeast nitrogen base, 3 g/L yeast extract, 3 g/L ammonium sulfate, 1 g/L potassium phosphate monobasic; 1 g/L potassium phosphate, dibasic, and 75 g/L glycerol (Picataggio S., et al., Biotechnology (NY) 1992 August; 10 (8):894-8). The cultures were then placed in a 30° C. shaking incubator at 300 rpm for 20 to 24 hours.
(§3) The cells were then centrifuged for 5 minutes at 3000 rpm and the supernatant discarded. The cells were resuspended in DCA3 medium supplemented with 1.0% triton-X100. DCA3 is a 0.3 M potassium phosphate buffer, pH 7.5 containing 6.7 g/L yeast nitrogen base and 50 g/L glycerol. Variations of DCA3 media recipes are known, non-limiting examples of which include the addition of dextrose and/or glycerol, the like or combinations thereof. DCA3 media, as referred to herein, can include dextrose and/or glycerol. After re-suspension, the OD600 nm for each culture was adjusted to a common OD (based on the available OD for the strain with the least growth) and 10 ml was transferred to pre-weighed 250 ml bottom baffled shake flasks. The flasks were then reweighed to determine the starting weight of the culture. The substrate to be converted was then added at 1% v/v for ethyl esters and 3% v/v for alkanes. The increased amount of alkanes added was due to their volatility to ensure that sufficient substrate remained in solution for bioconversion. The flasks were weighed once more to determine the exact amount of substrate added to each flask and were then placed, in a 30° C. shaking incubator at 300 rpm for 4 hours. Bioconversion tests for ethyl-stearate and ethyl palmitate were performed at 35° C. due to melting point limitations for these substrates.
(§4) After 48 hours, the flasks were weighed once more to determine the weight of the final culture. The cultures were mixed well by swirling and 1 ml was transferred to a pre-weighed 15 ml falcon tube containing 0.8 ml of 6N HCl. The tube was weighed to determine the density of the final culture and this number used to determine the culture volume present at the final time point. Samples were submitted to analytical for analysis by GC.

[4] = test system: sAA1082; assay: as above; assay type: cell-based, Candida; settings: for Feedstock Yield (g diacid/g added feedstock) sAA-1082: shake flask, ethyl esters 1% v/v, alkanes 3% v/v
Procedure: as §1, §2, §3, §4

[5] = test system: sAA2178; assay: as above; assay type: cell-based, Candida; settings: for Feedstock Yield (g diacid/g added feedstock) sAA-2178: shake flask, ethyl esters 1% v/v, alkanes 3% v/v
Procedure: as §1, §2, §3, §4

[6] = test system: strain sAA2178; assay: Production of DDDA with glycerol or xylose substituted for dextrose as co-feed (Example 69); assay type: cell-based, Candida; settings: co-feed 1.25 g/L-h; for production of DDDA: ethyl laurate feed
Procedure: A pre-culture of 80 mL SP92 in a 500 mL baffled flask with foam plugs was inoculated with 1.0 mL from a frozen glycerol stock of strain sAA2178 (beta-oxidation blocked strains plus amplified CPRB, CYP52A19, ADH2a, ADH8, and HFD2) and incubated for 24 h at 30° C. and 250 RPM. […] Growth was initiated with an inoculum of pre-culture to an/initial OD600nm=1.0 and growth conditions of 35° C., 1000 rpm, 1 vvm; pH 5.8. Growth continued for approximately 10-12 h at which point the conversion phase was initiated by a continuous feed of ethyl laurate. Ethyl laurate was fed at a rate of 0.75 g/L-h for the first 24 h; 1.28 g/L-h from 24 h to termination. In addition, a co-feed of either dextrose, glycerol or xylose was fed at a rate of 1.25 g/L-h for all fermentations.

[7] = test system: strain sAA2178; assay: Production of DDDA using sucrose or dextrose as co-feed (Example 68); assay type: cell-based, Candida; settings: co-feed 0.9 g/L-h; for production of DDDA: ethyl laurate feed, three fermentations averaged
Procedure: A pre-culture of 80 mL SP92 in a 500 mL baffled flask with foam plugs was inoculated with 1.0 mL from a frozen glycerol stock of strain sAA2178 (beta-oxidation blocked strains plus amplified CPRB, CYP52A19, ADH2a, ADH8, and HFD2) and incubated for 24 h at 30° C. and 250 RPM. […] Growth was initiated an inoculum of pre-culture to an initial OD600nm=1.0 and growth conditions of 35° C., 1000 rpm, 1 vvm, pH 5.8. Growth continued for approximately 10-12 h at which point the conversion phase was initiated by a continuous feed of ethyl laurate. […] The data from three fermentations were averaged for the comparison.

[8] = test system: strain sAA1082; settings: ethanol co-feed 0.7 g/L-h
Procedure: Fermentation medium (MM1) at pH 5.8 was filter sterilized and transferred to a sterile fermentation vessel. For the control, dextrose was used for both growth and co-feed. For the experimental fermentations, glycerol or xylose was substituted oh a g/g basis for dextrose in both the growth medium (MM1) and in the co-feed. Growth was initiated with an inoculum of pre-culture to an initial OD600nm=1.0 and growth conditions of 35° C., 1000 rpm, 1 vvm, pH 5.8. Growth continued for approximately 10-12 h at which point the conversion phase was initiated by a continuous feed of methyl laurate. Methyl laurate was fed at a rate of 0.7 g/L-h for the first 24 h; 1.2 g/L-h from 24 h to termination. In addition, a co-feed of ethanol was fed at a rate of 0.7 g/L-h. The ethanol feed-rate was reduced relative to what would normally be used for glucose (1.2 g/l-h), since ethanol is theoretically a more energy-rich compound. At induction, the temperature was changed to 30° C. and the pH was maintained at 6.0 by addition of 6N KOH.

[9] = dextrose co-feed rate 0.9 g/L-h
[10] = dextrose co-feed rate 1.25 g/L-h

O=C(O)CCCCC(=O)O [Adipic Acid]
Diacid composition (fraction of total diacids) ([1]; pH 4.5): 0.32 | Diacid composition (fraction of total diacids) ([1]; pH 6.0): 0.12 | Diacid composition (fraction of total diacids) ([1]; pH 7.5): 0.05

O=C(O)CCCCCCCCCCC(=O)O [C12 Diacid, dodecanedioic acid]
Diacid composition (fraction of total diacids) ([1]; pH 4.5): 0.00 | Diacid composition (fraction of total diacids) ([1]; pH 6.0): 0.03 | Diacid composition (fraction of total diacids) ([1]; pH 7.5): 0.16

CCCCCCCCCCCC(=O)OCC [Ethyl Laurate]
HFA [2, 9]: 2.48 g/L | Lauric Acid [2, 9]: 2.00 g/L | Productivity (g/L-h) [2, 9]: 0.832 g/L-h | HFA [2, 10]: 1.64 g/L | Lauric Acid [2, 10]: 0.71 g/L | Productivity (g/L-h) [2, 10]: 0.879 g/L-h | improvement in productivity over the methyl laurate fermentation with similar co-feed rate ([2]; higher dextrose feed): about 6%

CCCCCCCCCCCCCCCC(=O)OCC [Ethyl palmitate]
Feedstock Yield (g diacid/g added feedstock) ATTC-20962 [3]: 0.059 g diacid/g added feedstock | % improvement over ATTC 20962 sAA-1082 [4]: 41.8% | Feedstock Yield (g diacid/g added feedstock) sAA-1082 [4]: 0.084 g diacid/g added feedstock | % improvement over ATTC 20962 sAA-2178 [5]: 51.2% | Feedstock Yield (g diacid/g added feedstock) sAA-2178 [5]: 0.090 g diacid/g added feedstock

CCCCCCCCCCCCCCCCCC(=O)OCC [Ethyl stearate]
Feedstock Yield (g diacid/g added feedstock) ATTC-20962 [3]: 0.074 g diacid/g added feedstock | % improvement over ATTC 20962 sAA-1082 [4]: 14.5% | Feedstock Yield (g diacid/g added feedstock) sAA-1082 [4]: 0.085 g diacid/g added feedstock | % improvement over ATTC 20962 sAA-2178 [5]: 92.7% | Feedstock Yield (g diacid/g added feedstock) sAA-2178 [5]: 0.143 g diacid/g added feedstock

CCCCCCCCCCCCCC(=O)OCC [Ethyl tetradecanoate]
Feedstock Yield (g diacid/g added feedstock) ATTC-20962 [3]: 0.347 g diacid/g added feedstock | % improvement over ATTC 20962 sAA-1082 [4]: 16.5% | Feedstock Yield (g diacid/g added feedstock) sAA-1082 [4]: 0.404 g diacid/g added feedstock | % improvement over ATTC 20962 sAA-2178 [5]: 28.1% | Feedstock Yield (g diacid/g added feedstock) sAA-2178 [5]: 0.444 g diacid/g added feedstock

CCCCCCCCCCCC(=O)OC [Methyl Laurate]
HFA [2, 9]: 3.31 g/L | Lauric Acid [2, 9]: 8.36 g/L | Productivity (g/L-h) [2, 9]: 0.638 g/L-h | HFA [2, 10]: 3.83 g/L | Lauric Acid [2, 10]: 3.88 g/L | Productivity (g/L-h) [2, 10]: 0.832 g/L-h

O=C(O)CCCCCCCCC(=O)O [Sebacic Acid]
Diacid composition (fraction of total diacids) ([1]; pH 4.5): 0.00 | Diacid composition (fraction of total diacids) ([1]; pH 6.0): 0.10 | Diacid composition (fraction of total diacids) ([1]; pH 7.5): 0.17

O=C(O)CCCCCCC(=O)O [Suberic Acid]
Diacid composition (fraction of total diacids) ([1]; pH 4.5): 0.68 | Diacid composition (fraction of total diacids) ([1]; pH 6.0): 0.75 | Diacid composition (fraction of total diacids) ([1]; pH 7.5): 0.62

O=C[C@H](O)[C@@H](O)[C@H](O)[C@H](O)CO [dextrose]
HFA levels [6]: 1.24 g/L | lauric acid accumulated [6]: 0.37 g/L | production of DDDA [6]: 0.825 g/L-h | lauric acid accumulated [7]: 0.52 g/L | production of DDDA [7]: 0.872 g/L-h

CCO [ethanol]
accumulation of HFA [8]: 5.3 g/L | accumulation of lauric acid [8]: 8.5 g/L | accumulation of methyl laurate [8]: 38 g/L | DDDA productivity ([8]; methyl laurate feed): 0.446 gL

OCC(O)CO [glycerol]
HFA levels [6]: 0.33 g/L | lauric acid accumulated [6]: 12.28 g/L | production of DDDA, less than with dextrose [6]: about 60% | production of DDDA [6]: 0.327 g/L-h

CCCCCCCCCCCCC [n-Tridecane]
Feedstock Yield (g diacid/g added feedstock) ATTC-20962 [3]: 0.680 g diacid/g added feedstock | % improvement over ATTC 20962 sAA-1082 [4]: 38.3% | Feedstock Yield (g diacid/g added feedstock) sAA-1082 [4]: 0.941 g diacid/g added feedstock | % improvement over ATTC 20962 sAA-2178 [5]: 27.7% | Feedstock Yield (g diacid/g added feedstock) sAA-2178 [5]: 0.868 g diacid/g added feedstock

CCCCCCCCCCC [n-Undecane]
Feedstock Yield (g diacid/g added feedstock) ATTC-20962 [3]: 0.312 g diacid/g added feedstock | % improvement over ATTC 20962 sAA-1082 [4]: 23.7% | Feedstock Yield (g diacid/g added feedstock) sAA-1082 [4]: 0.386 g diacid/g added feedstock | % improvement over ATTC 20962 sAA-2178 [5]: 29.3% | Feedstock Yield (g diacid/g added feedstock) sAA-2178 [5]: 0.403 g diacid/g added feedstock

CCCCCCCCCCCCCCCCC [n-heptadecane]
Feedstock Yield (g diacid/g added feedstock) ATTC-20962 [3]: 0.473 g diacid/g added feedstock | % improvement over ATTC 20962 sAA-1082 [4]: 17.3% | Feedstock Yield (g diacid/g added feedstock) sAA-1082 [4]: 0.555 g diacid/g added feedstock | % improvement over ATTC 20962 sAA-2178 [5]: 8.6% | Feedstock Yield (g diacid/g added feedstock) sAA-2178 [5]: 0.514 g diacid/g added feedstock

CCCCCCCCCCCCCCC [n-pentadecane]
Feedstock Yield (g diacid/g added feedstock) ATTC-20962 [3]: 0.505 g diacid/g added feedstock | % improvement over ATTC 20962 sAA-1082 [4]: 33.1% | Feedstock Yield (g diacid/g added feedstock) sAA-1082 [4]: 0.673 g diacid/g added feedstock | % improvement over ATTC 20962 sAA-2178 [5]: 16.8% | Feedstock Yield (g diacid/g added feedstock) sAA-2178 [5]: 0.590 g diacid/g added feedstock

OC[C@H]1O[C@@](CO)(O[C@H]2O[C@H](CO)[C@@H](O)[C@H](O)[C@H]2O)[C@@H](O)[C@@H]1O [sucrose]
lauric acid accumulated [7]: 1.56 g/L | production of DDDA, less than with dextrose [7]: about 3% | production of DDDA [7]: 0.847 g/L-h

O=C[C@H](O)[C@@H](O)[C@H](O)CO [xylose]
HFA levels [6]: 0.20 g/L | lauric acid accumulated [6]: 19.04 g/L | production of DDDA, less than with dextrose [6]: about 75% | production of DDDA [6]: 0.211 g/L-h
